Data taken from the OPERA property sets (Mansouri et al. 2018).

settings: not given

Row | SMILES | log10 Koc (L/kg) | melting point [°C] | log10 vapour pressure (mmHg) | ready biodegradability | boiling point [°C] | log10 Henry constant (atm·m³/mol) | log10 Koa
1 | COc1nc(Cl)c(Cl)cc1Cl | 2.96 | – | – | – | – | – | –
2 | N#CCCCCCC#N | – | -31.4 | – | – | – | – | –
3 | O=C(O)CS | – | -16.5 | -1.06 | readily biodegradable | – | – | –
4 | C[C@H](CS)C(=O)N1CCC[C@H]1C(=O)O | – | 106 | – | – | – | – | –
5 | CCN(CCO)c1ccc(/N=N/c2ccc([N+](=O)[O-])cc2Cl)cc1 | – | 133 | – | – | – | – | –
6 | CCOC(=O)CCN(SN(C)C(=O)Oc1cccc2c1OC(C)(C)C2)C(C)C | – | – | -6.7 | – | – | – | –
7 | NS(=O)(=O)c1ccc(S(=O)(=O)CCCO)c(F)c1 | – | 130 | – | – | – | – | –
8 | Cc1cccc(N)n1 | – | 41 | – | – | 208 | – | –
9 | CC(=O)OCC(=O)O | – | 67.5 | – | – | – | – | –
10 | C=CCN1CC[C@]23CCCC[C@H]2[C@H]1Cc1ccc(O)cc13 | – | 181 | – | – | – | – | –
11 | COC(=O)COc1ccccc1 | – | 245 | – | – | 245 | – | –
12 | OCC(F)F | – | -28.2 | – | – | 95.5 | – | –
13 | CN(C)c1ccc(C(=O)c2ccc(N(C)C)cc2)cc1 | 2.21 | 179 | – | not readily biodegradable | – | – | –
14 | CC(O)Cn1cnc2c1c(=O)n(C)c(=O)n2C (stereo unspecified) | – | 136 | – | – | – | – | –
15 | Nc1ncn([C@@H]2O[C@H](CO)[C@@H](O)[C@H]2O)c(=O)n1 | – | 229 | – | – | – | – | –
16 | O=S1(=O)CC=CC1 | – | 64.5 | – | – | – | – | –
17 | CCn1cc(C(=O)O)c(=O)c2cc(F)c(N3CCNC(C)C3)c(F)c21 (stereo unspecified) | – | 240 | – | – | – | – | –
18 | Cc1cc(C)n(-c2ccccc2)n1 | – | – | – | – | 273 | – | –
19 | Cc1cccc(C(=O)c2ccccc2)c1 | – | – | – | – | 317 | – | –
20 | CC(c1ccccc1)c1ccc(O)c(C(C)c2ccccc2)c1C(C)c1ccccc1 (stereo unspecified) | – | – | – | not readily biodegradable | – | – | –
21 | COc1ccc(OC)c([N+](=O)[O-])c1 | – | 72.5 | – | – | – | – | –
22 | C=COC=C | – | -101 | 2.83 | – | 28.3 | – | –
23 | O=[N+]([O-])c1ccc(CBr)cc1 | – | 99 | – | – | – | – | –
24 | O=C(O)C=CC=Cc1ccc2c(c1)OCO2 | – | 215 | – | – | – | – | –
25 | CCCOC(OCCC)OCCC | – | – | – | – | 191 | – | –
26 | N#CCN(CC#N)CC#N | – | 126 | -6.5 | – | – | – | –

Row | SMILES | log10 Koc (L/kg) | melting point [°C] | log10 vapour pressure (mmHg) | ready biodegradability | boiling point [°C] | log10 Henry constant (atm·m³/mol) | log10 Koa
27 | CN(C)c1ccc(N=Nc2ccc([N+](=O)[O-])cc2)cc1 | – | 236 | -10 | – | – | – | –
28 | C[Si](C)(C)N[Si](C)(C)C | – | – | 1.14 | – | 125 | – | –
29 | Oc1ccccc1S | – | 5.5 | – | – | 217 | – | –
30 | Cc1ccncc1 | – | 3.66 | 0.761 | – | 145 | -5.22 | –
31 | C[C@]12CC[C@@H](O)C[C@@H]1CC[C@@H]1[C@@H]2CC[C@]2(C)C(=O)CC[C@@H]12 | – | 182 | – | – | – | – | –
32 | Clc1ccc(C(Cl)(Cl)Cl)c(Cl)c1 | – | – | – | not readily biodegradable | – | – | –
33 | COc1ccccc1OC(=O)Oc1ccccc1OC | – | 89 | – | – | – | – | –
34 | Cc1cc(C)cc(N)c1 | – | 9.8 | – | not readily biodegradable | 220 | – | –
35 | OCC1CCCCC1 | – | -43 | – | – | 183 | – | –
36 | NC(=O)c1c(F)cccc1F | – | 146 | – | – | – | – | –
37 | CCC(=O)OCc1ccco1 | – | – | – | – | 195 | – | –
38 | CC(Cl)C(=O)CCl (stereo unspecified) | – | – | – | – | 166 | – | –
39 | ClC(Cl)(Cl)Br | – | -5.7 | 1.59 | – | 105 | – | –
40 | Oc1cc(Cl)ccc1Oc1ccc(Cl)cc1Cl | – | 55.6 | – | not readily biodegradable | – | – | –
41 | C=CCc1cc(OC)c(OC)c(OC)c1OC | – | 25 | – | – | – | – | –
42 | CCCOP(=O)(OCCC)Oc1ccc(SC)cc1 | – | – | -6.05 | – | – | – | –
43 | Cl.c1ccc(CC2=NCCN2)cc1 | – | 175 | – | – | – | – | –
44 | C(CC1CCNCC1)CC1CCNCC1 | – | 67.1 | – | – | 329 | – | –
45 | CCCCCCC(C=O)=Cc1ccccc1 | – | 39.2 | – | – | – | – | –
46 | CC(C)COC(C)OCC(C)C | – | – | – | – | 171 | – | –
47 | CC(C)(C)SSC(C)(C)C | – | -5 | – | – | – | – | –
48 | CCN(CC)c1ccc([N+](=O)[O-])cc1 | – | 77.5 | – | – | – | – | –
49 | O=CCCl | – | -16.3 | 1.81 | – | 85.5 | – | –
50 | Cc1cc(=O)oc2cc(O)ccc12 | – | 196 | – | – | – | – | –
51 | CC1=CCCC(C)(C)C1/C=C/C(C)=C/C=C/C(C)=C/C=C/C=C(C)/C=C/C=C(C)/C=C/C1=C(C)CCCC1(C)C (stereo unspecified) | – | 188 | – | – | – | – | –
52 | Cc1cc(C(C)(C)c2ccc(O)c(C)c2)ccc1O | – | 139 | – | – | – | – | –

Row | SMILES | log10 Koc (L/kg) | melting point [°C] | log10 vapour pressure (mmHg) | ready biodegradability | boiling point [°C] | log10 Henry constant (atm·m³/mol) | log10 Koa
53 | O=C([O-])Cc1ccccc1Nc1c(Cl)cccc1Cl.[Na+] | – | 284 | – | – | – | – | –
54 | O=P(O)(Oc1ccccc1)Oc1ccccc1 | – | 67.5 | – | – | – | – | –
55 | FC(Br)C(F)(F)F (stereo unspecified) | – | -80 | – | – | 8.6 | -1.24 | –
56 | CC(C)(C)[C@@H](O)[C@@H](Cc1ccc(Cl)cc1)n1cncn1 (single isomer, unassigned) | 2.7 | 166 | -8.12 | – | – | – | –
57 | Clc1cc(Cl)c(Cl)c(Cl)c1Cl | 3.5 | 86 | -3 | not readily biodegradable | 277 | -3.15 | 6.49
58 | O=C1OS(=O)(=O)c2ccccc21 | – | 130 | – | – | – | – | –
59 | O=[N+]([O-])c1ccc(O)c([N+](=O)[O-])c1 | – | 116 | -3.41 | not readily biodegradable | – | -7.07 | –
60 | CC[N+](CC)(CC)CCC(O)(c1ccccc1)C1CCCCC1.[I-] (stereo unspecified) | – | 182 | – | – | – | – | –
61 | CCC#CCCO | – | – | – | readily biodegradable | 163 | – | –
62 | N#CCCCOc1ccccc1 | – | 45.5 | – | – | 288 | – | –
63 | COc1cc2c(cc1OC)[C@]1(O)C(=O)c3ccc4c(c3O[C@@H]1CO2)C=CC(C)(C)O4 | – | 198 | – | – | – | – | –
64 | CCB(CC)CC | – | -93 | – | – | 95 | – | –
65 | Nc1ccnc(N)c1 | – | 107 | – | – | – | – | –
66 | CCOC(=O)C(C(C)=O)C(C)=O | – | – | – | – | 210 | – | –
67 | CCCCCCCCCCCCCCCCCC(=O)NCCNC(=O)CCCCCCCCCCCCCCCCC | – | – | – | not readily biodegradable | – | – | –
68 | COc1cc(C(=O)O)cc(OC)c1OC | – | 172 | – | – | – | – | –
69 | C=CC(=C)F | – | – | – | – | 12 | – | –
70 | NNC(=O)c1ccncc1 | – | 171 | – | – | – | – | –
71 | COc1c(Cl)c(C)c2c(c1Cl)OC(=O)c1c(C)c(Cl)c(O)c(Cl)c1O2 | – | 232 | – | – | – | – | –
72 | Clc1ccc(-c2c(Cl)cc(Cl)cc2Cl)cc1 | – | 65 | – | – | – | – | –
73 | Cc1cc[nH]n1 | – | 36.5 | – | – | 204 | – | –
74 | CCOC(=O)C(Br)C(C)Br (stereo unspecified) | – | 58.5 | – | – | – | – | –
75 | Cc1cc(C(C)(C)C)cc(C)c1CC1=NCCN1 | – | 132 | – | – | – | – | –
76 | N#Cc1ccc(-c2ccc(C#N)cc2)cc1 | – | 238 | – | – | – | – | –
77 | CCNC(=O)Nc1ncc([N+](=O)[O-])s1 | – | 228 | – | – | – | – | –
78 | c1ccc(CN(Cc2ccccc2)c2ccccc2)cc1 | – | 69 | – | – | – | – | –

Row | SMILES | log10 Koc (L/kg) | melting point [°C] | log10 vapour pressure (mmHg) | ready biodegradability | boiling point [°C] | log10 Henry constant (atm·m³/mol) | log10 Koa
79 | O=C(NNc1ccccc1)NNc1ccccc1 | – | 170 | – | – | – | – | –
80 | CC/C=C/C=C/C=O | – | 84.5 | – | – | – | – | –
81 | N#Cc1c(F)cccc1F | – | 31 | – | – | – | – | –
82 | O=C1c2ccccc2C(=O)c2c(O)cccc21 | – | 194 | -6.68 | not readily biodegradable | – | – | –
83 | FC(F)(F)CI | – | – | – | – | 54.5 | – | –
84 | CCN1CCCC(N)C1 (stereo unspecified) | – | – | – | – | 155 | – | –
85 | O=C(NC(=O)c1c(F)cccc1F)Nc1ccc(OC(F)(F)C(F)OC(F)(F)F)c(Cl)c1 (stereo unspecified) | – | 178 | – | – | – | – | –
86 | O=[N+]([O-])c1cccc2ncccc12 | – | 74 | – | – | – | – | –
87 | CCN(CC)CCOC(=O)c1ccc(N)cc1.Cl | – | 156 | – | – | – | – | –
88 | Cc1cnc2c(ccc3c(C)c(C)cnc32)c1C | – | 278 | – | – | – | – | –
89 | CCCCCCCCCCCCCCCBr | – | 19 | -3.83 | – | 322 | – | –
90 | O=Nc1ccc(O)c(N=O)c1O | – | 168 | – | – | – | – | –
91 | O=c1cc[nH]c2cc(C(F)(F)F)ccc12 | – | 268 | – | – | – | – | –
92 | Cc1ncc(CO)c(CO)c1O | – | 160 | – | – | – | – | –
93 | Nc1ccc2cc(S(=O)(=O)O)cc(S(=O)(=O)O)c2c1 | – | 274 | – | – | – | – | –
94 | CCCCCN1CCCCC1 | – | – | – | – | 198 | – | –
95 | Clc1c(Cl)c(Cl)c(C(Cl)Cl)c(Cl)c1Cl | – | 120 | – | – | 334 | – | –
96 | COc1ccnc2ccccc12 | – | 41 | – | – | 245 | – | –
97 | Cc1cc(C)c(C(=O)O)c(C)c1 | – | 154 | – | – | – | – | –
98 | CC(=O)Nc1ccc(/N=N/c2cc(C)ccc2O)cc1 | – | 195 | -10.3 | – | – | – | –
99 | CC1=CC(=O)C(C(C)C)=CC1=O | – | 45.5 | – | – | 232 | – | –
100 | CCCCCCCCCCOC(=O)c1ccccc1C(=O)OCCCCCC | – | -4 | – | – | – | – | –
101 | CCC1(C2=CCCCC2)C(=O)NC(=O)NC1=O | – | 173 | – | – | – | – | –
102 | Cc1coc(C)c1 | – | – | – | – | 94 | – | –
103 | Oc1ccc(Cl)c(Cl)c1 | 3.09 | 68 | – | not readily biodegradable | 253 | – | –

same assay, conditions: fish

Row | SMILES | log10 BCF | log10 biotransformation half-life (days)
104 | CN(C)c1ccc(C(=O)c2ccc(N(C)C)cc2)cc1 | 1.45 | -0.77
105 | Clc1cc2c(oc3c(Cl)c(Cl)ccc32)c(Cl)c1Cl | – | 0.9
106 | Oc1cc(Cl)ccc1Oc1ccc(Cl)cc1Cl | 1.72 | –
107 | Clc1cc(Cl)c(Cl)c(Cl)c1Cl | 3.75 | 1.87
108 | O=[N+]([O-])c1ccc(O)c([N+](=O)[O-])c1 | 0.57 | –
109 | O=C1c2ccccc2C(=O)c2c(O)cccc21 | 2.25 | –
110 | Oc1ccc(Cl)c(Cl)c1 | 1.69 | -0.92
